Reference: patent publication US20260000781A1, “FC CONJUGATES INCLUDING AN INHIBITOR OF CD73 AND USES THEREOF” (Cidara Therapeutics, Inc., priority 2022, published 2026)
Several values for one entry are separate records, joined by “and”; a condition that tells them apart may be missing. Identical values can stand only once.

Key:
[1] = tested on: adenosine production by human PBMCs; test: PBMC activation assay, AMP conversion by CellTiter-Glo; assay type: cell-based; details: 30 μM AMP, 72 h
Method: Human PBMCs (StemCell Technologies cat no. 70025) prepared in ImmunoCult™—XF T cell Expansion medium (StemCell Technologies cat no. 10981) were seeded at 1×10^5 cells per well (100 μL of 1×10^6 cells/mL) in the presence or absence of T cell activator anti-CD3/CD28/CD2 (StemCell Technologies cat no. 10970) in 96 well round bottom plates (Corning cat no. 3788). Ten-fold serial dilutions of each test article was prepared in medium (ranging from 4,000 nM-0.4 nM), resulting in final concentrations ranging from 1,000 nM-0.1 nM. 50 μL of test article was added to the cells, followed by 50 μL of adenosine 5′ monophosphate (AMP; MilliporeSigma cat no. A1752) for a final concentration of 30 μM. Plates were incubated at 37° C. with 5% CO2 for 72 h. After 72 h the cells were centrifuged for 5 min at 300×g at 4° C. and the supernatant was reserved for analysis of AMP conversion using CellTiter-Glo (Promega cat no. G7571).
25 μL of reserved supernatant was transferred to a white 96-well plate (Corning cat no. 3917) and combined with 25 μL of a 1 μM adenosine 5′ triphosphate (ATP; MilliporeSigma cat no. A7699) solution. 50 μL of CellTiter-Glo reagent was added, and the plate incubated for 10 min at room temperature. Luminescence was measured using an EnSpire plate reader (PerkinElmer). […]

[2] = molecular target: T1, CD73 expressed on the MDA-MB-231 cell surface (Homo sapiens, UniProt P21589); test: Cell-based CD73 enzyme inhibition assay using MDA-MB-231 cells (CellTiter-Glo)
T1 construct: host or cells: MDA-MB-231
T1 sequence (P21589 27-549): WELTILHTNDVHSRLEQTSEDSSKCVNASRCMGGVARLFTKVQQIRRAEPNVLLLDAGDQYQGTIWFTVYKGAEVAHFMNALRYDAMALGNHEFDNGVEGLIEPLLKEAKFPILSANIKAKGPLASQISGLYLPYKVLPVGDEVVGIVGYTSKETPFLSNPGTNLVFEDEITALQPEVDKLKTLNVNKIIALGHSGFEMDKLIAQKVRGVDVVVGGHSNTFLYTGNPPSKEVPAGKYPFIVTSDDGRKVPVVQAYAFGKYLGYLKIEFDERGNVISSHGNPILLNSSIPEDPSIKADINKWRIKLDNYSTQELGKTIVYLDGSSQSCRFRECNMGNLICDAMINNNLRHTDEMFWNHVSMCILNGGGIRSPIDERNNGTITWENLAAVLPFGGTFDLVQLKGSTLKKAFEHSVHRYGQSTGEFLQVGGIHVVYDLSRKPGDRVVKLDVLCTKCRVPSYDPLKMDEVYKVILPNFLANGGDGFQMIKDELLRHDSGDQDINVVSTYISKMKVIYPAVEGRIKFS
Method: The cell-based CD73 enzyme inhibition assay was performed essentially as described above for the cell-free assay, with the following modifications. MDA-MB-231 human breast adenocarcinoma cells (ATCC CRM-HTB-26) were seeded at 2×10^4 cells/well/100 μL into 96-well tissue culture-treated plates (Corning Costar cat no. 3596) and incubated overnight at 37° C., 5% CO2. Cells were incubated with test inhibitors (50 μL/well) and AMP (25 μL/well, final 400 μM) for 3 h at 37° C., 5% CO2 to allow for interaction with CD73 expressed on the MDA-MB-231 cell surface. The 96-well plate was then centrifuged at 125×g for 5 min at room temperature and ATP (25 μL/well, 100 μM final) was combined with supernatant (25 μL/well) in a white opaque 96-well plate (Corning Costar cat no. 3912). The CD73 activity in the supernatant was quantified using the CellTiter-Glo kit (Promega cat no. G7571). Percent CD73 inhibition (y-axis) versus log10 inhibitor concentration (x-axis) were plotted using GraphPad Prism Version 8 and IC50's calculated using nonlinear regression analysis (Sigmoidal, 4 PL).
An additional assay was performed to test the effect of linker length on IC50 potency using the cell-based CD73 enzyme inhibition assay. Conjugate 194, Conjugate 195, and Conjugate 196 have the same small molecule targeting moiety (Int) as Conjugate 172c (batch 9) but with varying linker lengths.

[3] = molecular target: T2, CD73 (Homo sapiens, UniProt P21589); test: Cell-free CD73 inhibition IC50 (nM)
T2 sequence (P21589 27-549): T1 sequence (P21589 27-549)
Source text: Table printed on a drawing sheet, FIG. 24
Head of the field: Cell-free CD73 inhibition IC50 (nM)
Where the first naming reader finds the target: head: Cell-free CD73 inhibition IC50 (nM)

[4] = MDA-MB-231 cells, AMP 400 μM, 3 h, Table 29 experiment

SMILES	EC50 ([1]; Homo sapiens, PBMC) [nM]	EC50 [1] [nM]	IC50 [2, 4]	IC50 [3] [nM]	IC50 ([2]; additional assay on linker length, Table 30 experiment) [nM]
C[C@H](Nc1cc(Cl)nc2c1cnn2[C@@H]1O[C@H](COP(=O)(O)CP(=O)(O)O)[C@@H](O)[C@H]1O)c1ccccc1F [AB680]	5	–	–	–	–
COC[C@](CO)(OC[C@H]1O[C@@H](n2ncc3c(NC4CCCC4)nc(Cl)nc32)[C@H](O)[C@@H]1O)P(=O)(O)O [OP5244]	–	1	–	–	–
COC[C@](CO)(OC[C@H]1O[C@@H](n2ncc3c(NC4CCCC4)nc(Cl)nc32)[C@H](O)[C@@H]1O)P(=O)(O)O [OP-5244]	–	–	0.9 nM and 0.87 nM	2.25	–
O=P(O)(O)COC[C@H]1O[C@@H](n2ncc3c(N4CC5(CCc6ccccc65)C4)nc(Cl)nc32)[C@H](O)[C@@H]1O [SHR170008]	–	–	3.7 nM	16.1	4
